In patent US7396837B2, “Antitumoral analogs of lamellarins” (Pharma Mar, S.A.U., priority 2002, dated 2008):

How the values were obtained:
Type in all cases: cell-based
PANC-1 = assay: SRB colorimetric cell growth inhibition assay, PANC-1
In short: (§1)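 Human tumour cells continuously exposed to compound in 96-well culture; growth and viability quantified colorimetrically by sulforhodamine B staining. Mean ± SD from triplicate wells; GI (growth inhibition), TGI (total growth inhibition, cytostatic) and LC (cell killing, cytotoxic) parameters derived.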

LoVo-Dox = assay: SRB colorimetric cell growth inhibition assay, LoVo-Dox (MDR); conditions: Homo sapiens, LOVO-DOX
In short: as §1

A-549 = assay: SRB colorimetric cell growth inhibition assay, A-549; conditions: Homo sapiens, A549, A-549
In short: as §1

SKOV-3 = assay: SRB colorimetric cell growth inhibition assay, SKOV-3; conditions: Homo sapiens
Text: (§2) A colorimetric type of assay, using sulforhodamine B (SRB) reaction has been adapted for a quantitative measurement of cell growth and viability (following the technique described by P. A. Skehan, et al., J. Natl. Cancer Inst. 1990, 82, 1107-1112).
(§3) This form of assay employs 96 well cell culture microplates of 9 mm diameter (T. Mosmann et al., J. of Immunological Methods 1983, 65, 55-63; G. T. Faircloth et al., J. of Tissue and Culture Methods 1988, 11, 201-205).
(§4) Most of the cell lines are obtained from American Type Culture Collection (ATCC) derived from different human cancer types.
(§5) The values for mean +/− SD of data from triplicate wells are calculated. Some parameters for cellular responses can be calculated: GI=growth inhibition, TGI=total growth inhibition (cytostatic effect) and LC=cell killing (cytotoxic effect).

SK-BR-3 = assay: SRB colorimetric cell growth inhibition assay, SK-BR-3
In short: as §1

HT-29 = assay: SRB colorimetric cell growth inhibition assay, HT-29
In short: as §1

SK-MEL-28 = assay: SRB colorimetric cell growth inhibition assay, SK-MEL-28; conditions: MEL-28
In short: as §1

LNCaP = assay: SRB colorimetric cell growth inhibition assay, LNCaP; conditions: Homo sapiens, LNCaP, LN-caP
In short: as §1

K-562 = assay: SRB colorimetric cell growth inhibition assay, K-562; conditions: Homo sapiens, K562, K-562
In short: as §1

LoVo = assay: SRB colorimetric cell growth inhibition assay, LoVo; conditions: Homo sapiens, LoVo
In short: as §1

IGROV = assay: SRB colorimetric cell growth inhibition assay, IGROV; conditions: IGROV
In short: as §1

H-MEC-1 = assay: SRB colorimetric cell growth inhibition assay, H-MEC-1; conditions: Homo sapiens, HMEC-1, H-MEC-1
Text: as §2, §3, §4, §5

[1] = as above; conditions: human; H-MEC-1; cell killing (cytotoxic effect); read-out: LC50 H-MEC-1
Text: as §2, §3, §4, §5

IGROV-ET = assay: SRB colorimetric cell growth inhibition assay, IGROV-ET (ET-743 resistant); conditions: IGROV-ET
In short: as §1

DU-145 = assay: SRB colorimetric cell growth inhibition assay, DU-145
In short: as §1

## COc1cc2ccn3c(c(-c4ccc(OC(=O)[C@@H](N)Cc5ccccc5)c(OC)c4)c4c5cc(OC)c(OC(=O)[C@@H](N)Cc6ccccc6)cc5oc(=O)c43)c2cc1OC [Compound 18]
PANC-1; Homo sapiens, PANC-1, PANC-1, cell killing (cytotoxic effect), read-out: LC50 PANC-1
  CC50: 12300 nM
PANC-1; PANC-1, GI=growth inhibition, read-out: GI50 PANC-1
  GI50: 992 nM
PANC-1; PANC-1, total growth inhibition (cytostatic effect)
  TGI PANC-1: 3.70E−06 Molar
LoVo-Dox; GI=growth inhibition, read-out: GI50 LOVO-DOX
  GI50: 1080 nM
LoVo-Dox; cell killing (cytotoxic effect), read-out: LC50 LOVO-DOX
  CC50: 12100 nM
LoVo-Dox; total growth inhibition (cytostatic effect), read-out: TGI LOVO-DOX
  IC (TGI): 3670 nM
A-549; GI=growth inhibition, read-out: GI50 A-549
  GI50: 1610 nM
A-549; cell killing (cytotoxic effect), read-out: LC50 A-549
  CC50: 9990 nM
A-549; total growth inhibition (cytostatic effect), read-out: TGI A-549
  IC (TGI): 4000 nM
SKOV-3; SK-OV-3, SKOV-3, GI=growth inhibition, read-out: GI50 SKOV-3
  GI50: 1220 nM
SKOV-3; SK-OV-3, SKOV-3, cell killing (cytotoxic effect), read-out: LC50 SKOV-3
  LC50 (concentration causing 50% net cell killing): 6510 nM
SKOV-3; SK-OV-3, SKOV-3, total growth inhibition (cytostatic effect), read-out: TGI SKOV-3
  IC (TGI): 2820 nM
SK-BR-3; Homo sapiens, SK-BR-3, SK-BR-3, cell killing (cytotoxic effect), read-out: LC50 SK-BR-3
  CC50: 10500 nM
SK-BR-3; SK-BR-3, GI=growth inhibition, read-out: GI50 SK-BR-3
  GI50: 458 nM
SK-BR-3; SK-BR-3, total growth inhibition (cytostatic effect)
  TGI SK-BR-3: 2.14E−06 Molar
HT-29; HT-29, GI=growth inhibition, read-out: GI50 HT-29
  GI50: 819 nM
HT-29; Homo sapiens, HT-29, HT-29, cell killing (cytotoxic effect), read-out: LC50 HT-29
  CC50: 12300 nM
HT-29; Homo sapiens, HT-29, HT-29, total growth inhibition (cytostatic effect), read-out: TGI HT-29
  IC (TGI): 4540 nM
SK-MEL-28; GI=growth inhibition, read-out: GI50 MEL-28
  GI50: 524 nM
SK-MEL-28; cell killing (cytotoxic effect), read-out: LC50 MEL-28
  CC50: 4430 nM
SK-MEL-28; total growth inhibition (cytostatic effect)
  TGI MEL-28: 1.44E−06 Molar
LNCaP; GI=growth inhibition, read-out: GI50 LN-caP
  GI50: 359 nM
LNCaP; cell killing (cytotoxic effect), read-out: LC50 LN-caP
  CC50: 4270 nM
LNCaP; total growth inhibition (cytostatic effect), read-out: TGI LN-caP
  IC (TGI): 1270 nM
K-562; GI=growth inhibition, read-out: GI50 K-562
  GI50: 558 nM
K-562; cell killing (cytotoxic effect), read-out: LC50 K-562
  CC50: 8640 nM
K-562; total growth inhibition (cytostatic effect), read-out: TGI K-562
  IC (TGI): 1510 nM
LoVo; GI=growth inhibition, read-out: GI50 LOVO
  GI50: 664 nM
LoVo; cell killing (cytotoxic effect), read-out: LC50 LOVO
  CC50: 12300 nM
LoVo; total growth inhibition (cytostatic effect), read-out: TGI LOVO
  IC (TGI): 2370 nM
IGROV; Homo sapiens, cell killing (cytotoxic effect), read-out: LC50 IGROV
  CC50: 7910 nM
IGROV; Homo sapiens, total growth inhibition (cytostatic effect), read-out: TGI IGROV
  IC (TGI): 3210 nM
IGROV; GI=growth inhibition, read-out: GI50 IGROV
  GI50: 1310 nM
H-MEC-1; GI=growth inhibition, read-out: GI50 H-MEC-1
  GI50: 494 nM
H-MEC-1; total growth inhibition (cytostatic effect), read-out: TGI H-MEC-1
  IC (TGI): 846 nM
[1]
  LC50 (concentration giving 50% net cell killing): 2930 nM
IGROV-ET; Homo sapiens, cell killing (cytotoxic effect), read-out: LC50 IGROV-ET
  CC50: 12300 nM
IGROV-ET; Homo sapiens, total growth inhibition (cytostatic effect), read-out: TGI IGROV-ET
  IC (TGI): 5140 nM
IGROV-ET; GI=growth inhibition, read-out: GI50 IGROV-ET
  GI50: 2000 nM
DU-145; DU-145, GI=growth inhibition, read-out: GI50 DU-145
  GI50: 505 nM
DU-145; DU-145, total growth inhibition (cytostatic effect)
  TGI DU-145: 1.41E−06 Molar
DU-145; Homo sapiens, DU-145, DU-145, cell killing (cytotoxic effect), read-out: LC50 DU-145
  CC50: 7040 nM
